Patent US10654834B2 (Venenum Biodesign, LLC, priority 2016, dated 2020)

Key:
Assay type in all cases: in vivo, mouse
[1] = Plasma concentration of compound in DIO mice over 24 hours; details: 30 mg/kg p.o. + sitagliptin 10 mg/kg, 6, 12, 18, 24 h
Experimental: Plasma Concentration of Compound in Mice
(§1) In these studies, the plasma concentration of the compounds of the present invention was measured in DIO mice as well as lean C57BL/6N mice.
In the first study, (data represented in FIG. 10), plasma concentration levels were measured over a 24 hour time period in DIO mice. Following the treatment with the compound, the blood was collected via cardiac puncture at 6, 12, 18, and 24 hours. The blood samples (>250 μL) were placed in an EDTA K^2+ tube and plasma was processed for analytical chemistry and analyzed by LCMS/MS method as described in Example 81. FIG. 10 depicts the plasma concentrations of Compound 268 after oral administration at 30 mg/kg in combination with 10° mg/kg sitagliptin. The plasma concentrations of Compound 268 were below 10 nM at every tested time points.

GLP-1 = GLP-1 levels after chronic dosing (5 days) in DIO mice; details: 30 mg/kg + sitagliptin 10 mg/kg p.o., after dose 2 and dose 10 (5 days), versus sitagliptin alone
Experimental: GLP-1 Levels after Chronic Dosing of Compounds
The chronic dosing of compounds of the present invention was evaluated to determine if they produce sustained GLP-1 levels.
Male DIO mice were received at 12 weeks of age (from Taconic), and were single-housed at the testing facility and acclimated for at least 2 weeks. The mice were provided a high fat diet [Research Diet D12492 (60% Fat kcal)] while in the testing facility. Before the study initiation, the animals were randomized into 18 experimental groups by body weight. The first 10 groups were administered with sitagliptin alone at 10 mg/kg or sitagliptin (10 mg/kg)+Compound 268 at 30 mg/kg by oral gavage and then again 14 hours later (except for one sitagliptin treated and one sitagliptin+Compound 268 treated groups that were euthanized 14° hours after the first dose). The remaining mice were euthanized at 3, 6, or 9 hours after the second dose to collect blood for GLP-1 measurements and bile weights. The remaining 8 groups were administered by oral gavage with sitagliptin alone at 10 mg/kg or sitagliptin (10 mg/kg)+Compound 268 at 30 mg/kg every 10 or 14 hours for 5 days. […] The active form of GLP-1 [GLP-1 (7-36) amide] was analyzed using Meso Scale Discovery System according to the manufacturer's instruction. […]

[2] = Bile weight after 6 weeks of dosing in DIO mice; details: about 6 h after final dose
Description: (§2) In the next series of studies (Examples 93-99), Male DIO mice were received at 12 weeks of age (from Taconic), and were single-housed at the testing facility and acclimated for at least 2 weeks. The mice were provided a high fat diet [Research Diet D12492 (60% Fat kcal)] while in the testing facility. Before the study initiation, the animals were randomized into 5 experimental groups by body weight. The vehicle group contained only 0.5% carboxymethylcellulose (medium viscosity)+0.25% Tween-80. The second group contained 10 mg/kg of the DPP-IV inhibitor Sitagliptin while the third group contained 30 mg/kg Compound 268. The fourth group contained the combination of 10 mg/kg Sitagliptin and 30 mg/kg Compound 268. The fifth group was the positive control for weight loss, Rimonabant. All mice were dosed BID at approximately 6:00 am and again at approximately 4:00 pm. The positive control rimonabant was administered at a dose of 10 mg/kg in the afternoon and the morning dosing was vehicle (no compound).
No Bile Weight Increase after 6 Weeks of Dosing Compounds
Compounds of the present invention were dosed for multiple weeks and were evaluated to determine if they lead to an increase in bile weight.
In this example, the protocol from Example 93 was utilized. […]

[3] = Plasma concentration of compound in lean C57BL/6N mice after OGTT; details: 6 h after 30 mg/kg + sitagliptin 3 mg/kg
Experimental: as §1
In the second study (data represented in FIG. 11), plasma concentration levels were measured in lean mice after an OGTT experiment described in Example 84. The blood was collected via cardiac puncture 6 hours post compound dosing (and 2 hours after the 2 g/kg glucose bolus). The blood samples (?250 μL) were placed in an EDTA K^2+ tube and plasma was processed for analytical chemistry and analyzed by LCMS/MS method as described in Example 81. FIG. 11 depicts low levels of Compound 268 following OGTT in lean C57BL/6N mice, 6 hours after treatment with 30 mg/kg in combination with 3 mg/kg sitagliptin.

[4] = Bile weight in lean C57BL/6N mice after OGTT; details: 30 mg/kg + sitagliptin 3 mg/kg p.o., 6 h, versus sitagliptin alone
Experimental: In addition, bile weight was determined in the OGTT study on lean mice described in Example 84 above. At the end of that study, bile was removed from the gallbladder and weighed to approximate volume of bile contained within the gallbladder.
FIG. 7 depicts bile weight in DIO mice at 6, 12, 18, and 24 hours after oral administration of 10 mg/kg sitagliptin alone or 10 mg/kg sitagliptin+30 mg/kg Compound 268. FIG. 8 depicts the comparison in bile weight between sitagliptin (3 mg/kg, p.o.) and Compound 268 (30 mg/kg, p.o.)+sitagliptin (3 mg/kg, p.o.) following an OGTT assay in lean C57BL/6N mice, 6 hours after treatment. FIG. 9 illustrates plasma GLP-1 levels from the DIO mice at the same time points.

blood glucose = assay: OGTT and insulin measurements after 5 weeks of dosing in DIO mice
Description: as §2, with “compound). […]” for “compound).”
Compounds of the present invention were dosed for multiple weeks and were evaluated for their effectiveness in glycemic control. […] Insulin is also analyzed using Meso Scale Discovery according to the manufacturer's directions (item number K152BZC). Plasma samples ([…]) were loaded in duplicate onto the assay plate and measured against internal standards.

plasma concentration of compound [1]: below 10 nM
bile weight / gallbladder size after 6 weeks of dosing [2]: does not show an increase in size
plasma concentration of compound [3]: low levels
SMILES: N#Cc1ccc(CCNC(=O)[C@@H]2CCN2c2cc(N3CCC(CCNC(=O)NCCC(=O)O)CC3)nc(C(F)(F)F)n2)cc1 [Compound 268, (S)-3-(3-(2-(1-(6-(2-((4-cyanophenethyl)carbamoyl)azetidin-1-yl)-2-(trifluoromethyl)pyrimidin-4-yl)piperidin-4-yl)ethyl)ureido)propanoic acid]
plasma GLP-1 level after chronic dosing (GLP-1): significantly increased level of GLP-1
bile weight [4]: no significant differences in bile weight
glucose levels in OGTT after 5 weeks of dosing (blood glucose; 30 mg/kg + sitagliptin 10 mg/kg BID, versus vehicle): reduced the glucose levels relative to vehicle
insulin levels in OGTT after 5 weeks of dosing (blood glucose; BID dosing): increased the sensitivity of the mice to insulin
